Reference: article PMC12384813
Read-outs that look alike come from different tables or passages of the source.

What was measured:
[1] = test system: U87 MG cells; experiment: cells; assay type: cell-based, human
Procedure: In this procedure, U87 MG (2 × 10^4 cells per well) were seeded in BD falcon transparent 96-well plates and incubated for 24 h.

[2] = test system: SVG p12 normal glial cells
[3] = test system: SVG p12 normal glial cells; experiment: cells; conditions: Homo sapiens
[4] = Solubility in aqueous media; assay type: physicochemical; conditions: needs 10% DMSO in saline to fully dissolve
[5] = Stability by mass spectrometry at physiological pH; assay type: physicochemical; conditions: pH 7.0, over 72 h
[6] = test system: U87 MG cells; experiment: Cellular uptake of ^64Cu-NOTA conjugates; assay type: cell-based, human; conditions: Table S1
Procedure: (§1) U87 MG (1 × 10^5 per well) were seeded in corning 24-well plates and cultured in DMEM with 10% FBS at 37 °C. […] For uptake assay, cells were washed with PBS to collect surface-bound and internalized activity, and for internalization assay, glycine-HCl wash was performed to remove surface bound activity. Moreover, cells were harvested, counted, and radioactivity was measured using a gamma counter. Results were expressed as percentage of total activity (%) in counts per min (CPM)/10^6 cells. For efflux studies, U87 MG cells were incubated with the complexes for 1 h, then washed with PBS, and replaced with fresh medium. The retained activity was measured over 0 to 24 h after washing.

[7] = test system: SVG p12 cells; experiment: Cellular uptake of ^64Cu-NOTA conjugates; assay type: cell-based, human; conditions: Table S1
[8] = test system: U87 MG cells; experiment: Internalization of ^64Cu-NOTA conjugates (glycine-HCl wash); assay type: cell-based, human; conditions: Table S2
Procedure: as §1

[9] = test system: SVG p12 cells; experiment: as above; assay type: cell-based, human; conditions: Table S2
[10] = test system: U87 MG cells; experiment: Efflux kinetics of ^64Cu-NOTA conjugates; assay type: cell-based, human; conditions: Table S3
Procedure: as §1

[11] = test system: SVG p12 cells; experiment: Efflux kinetics of ^64Cu-NOTA conjugates; assay type: cell-based, human; conditions: Table S3
[12] = 0.5 h after 1 h incubation and wash

Compound: Cn1nnc2c(C(N)=O)ncn2c1=O [Temozolomide]
- EC50 ([1]; Homo sapiens, U-87 MG, 24 h, U87 MG, read-out: EC50 24 h U87 MG): 800 ± 11 µM
- EC50 ([1]; Homo sapiens, U-87 MG, 48 h, U87 MG, read-out: EC50 48 h U87 MG): 580 ± 8 µM
- EC50 ([1]; Homo sapiens, U-87 MG, 72 h, U87 MG, read-out: EC50 72 h U87 MG): 575 ± 6 µM
- EC50 [2]: 72 ± 5 µM
- EC50 ([3]; SVGp12, 24 h, read-out: EC50 24 h SVG p12): 80 ± 10 µM
- EC50 ([3]; SVGp12, 48 h, read-out: EC50 48 h SVG p12): 76 ± 7 µM

Compound: N=C(N)NCCC[C@@H]1NC(=O)[C@H](CCCCNC(=O)[C@H](CCCCNC(=O)c2cc(-c3ccccn3)nc(-c3ccccn3)c2)NC(=O)COCCOCCNC(=O)CN2CCN(CC(=O)O)CCN(CC(=O)O)CC2)NC(=O)[C@@H](Cc2ccccc2)NC(=O)[C@H](CC(=O)O)NC(=O)CNC1=O [^natCu-NOTA-TP-c(RGDfK), metal not drawn]
- solubility in aqueous media [4]: limited solubility in aqueous media
- release of copper or platinum (mass spectrometry) [5]: no detectable release of copper or platinum

Compound: N=C(N)NCCC[C@@H]1NC(=O)[C@H](CCCCNC(=O)CNC(=O)COCCOCCNC(=O)CN2CCN(CC(=O)O)CCN(CC(=O)O)CC2)NC(=O)[C@@H](Cc2ccccc2)NC(=O)[C@H](CC(=O)O)NC(=O)CNC1=O [[^64Cu]Cu-NOTA-c(RGDfK), metal not drawn]
- Uptake 1h U87 MG ([6]; 1 h, 37 °C): 2.50 ±1.00 % total activity (CPM) /106 cells
- Uptake 2h U87 MG ([6]; 2 h): 3.23 ±0.61 % total activity (CPM) /106 cells
- Uptake 4h U87 MG ([6]; 4 h): 6.08 ± 0.60 % total activity (CPM) /106 cells
- Uptake 24h U87 MG ([6]; 24 h): 14.11 ± 0.95 % total activity (CPM) /106 cells
- Uptake 48h U87 MG ([6]; 48 h): 18.95 ± 0.45 % total activity (CPM) /106 cells
- Uptake 1h SVG p12 ([7]; 1 h): 2.67 ± 0.20 % total activity (CPM) /106 cells
- Uptake 2h SVG p12 ([7]; 2 h): 4.02 ± 0.41 % total activity (CPM) /106 cells
- Uptake 4h SVG p12 ([7]; 4 h): 5.36 ± 0.94 % total activity (CPM) /106 cells
- Uptake 24h SVG p12 ([7]; 24 h): 7.90 ± 0.41 % total activity (CPM) /106 cells
- Uptake 48h SVG p12 ([7]; 48 h): 7.30 ± 0.44 % total activity (CPM) /106 cells
- Internalized activity 1h U87 MG ([8]; 1 h): 3.13 ± 0.31 % total activity (CPM) /106 cells
- Internalized activity 2h U87 MG ([8]; 2 h): 3.28 ± 0.26 % total activity (CPM) /106 cells
- Internalized activity 4h U87 MG ([8]; 4 h): 5.00 ± 0.58 % total activity (CPM) /106 cells
- Internalized activity 24h U87 MG ([8]; 24 h): 11.44 ± 0.62 % total activity (CPM) /106 cells
- Internalized activity 48h U87 MG ([8]; 48 h): 15.08 ± 0.38 % total activity (CPM) /106 cells
- Internalized activity 1h SVG p12 ([9]; 1 h): 1.72 ±0.14 % total activity (CPM) /106 cells
- Internalized activity 2h SVG p12 ([9]; 2 h): 1.90 ± 0.14 % total activity (CPM) /106 cells
- Internalized activity 4h SVG p12 ([9]; 4 h): 3.05 ±0.48 % total activity (CPM) /106 cells
- Internalized activity 24h SVG p12 ([9]; 24 h): 6.80 ± 0.32 % total activity (CPM) /106 cells
- Internalized activity 48h SVG p12 ([9]; 48 h): 5.98 ± 0.36 % total activity (CPM) /106 cells
- Efflux (retained activity) 0.5h U87 MG [10, 12]: 89.28 ± 6.24 % total activity (CPM) /106 cells
- Efflux (retained activity) 1h U87 MG ([10]; 1 h after wash): 85.47 ± 3.64 % total activity (CPM) /106 cells
- Efflux (retained activity) 2h U87 MG ([10]; 2 h after wash): 84.08 ± 7.95 % total activity (CPM) /106 cells
- Efflux (retained activity) 4h U87 MG ([10]; 4 h after wash): 80.93 ± 6.97 % total activity (CPM) /106 cells
- Efflux (retained activity) 24h U87 MG ([10]; 24 h after wash): 67.59 ± 2.23 % total activity (CPM) /106 cells
- Efflux (retained activity) 0.5h SVG p12 [11, 12]: 94.55 ± 7.92 % total activity (CPM) /106 cells
- Efflux (retained activity) 1h SVG p12 ([11]; 1 h after wash): 88.05 ± 6.90 % total activity (CPM) /106 cells
- Efflux (retained activity) 2h SVG p12 ([11]; 2 h after wash): 83.93 ± 6.98 % total activity (CPM) /106 cells
- Efflux (retained activity) 4h SVG p12 ([11]; 4 h after wash): 73.44 ± 3.92 % total activity (CPM) /106 cells
- Efflux (retained activity) 24h SVG p12 ([11]; 24 h after wash): 17.62 ± 1.81 % total activity (CPM) /106 cells
- EC50 ([1]; 24 h): 0.025 ± 0.007 µM
- EC50 ([1]; 48 h): 0.032 ± 0.009 µM
- EC50 ([1]; 72 h): 0.045 ± 0.002 µM
- EC50 [2]: 0.118 ± 0.008 µM
- EC50 ([2]; 24 h): > 0.3 µM
- EC50 ([2]; 48 h): > 0.2 µM
